The test system of experiment [1] is E. coli J53 + NDM-1 transconjugant. Kind of experiment: MIC, broth microdilution. The class given is cell-based, Escherichia coli. As to conditions: captopril where added at 8 mg/liter. From the text: (§1) The bacteria used were nonclonal international isolates whose mechanisms of carbapenem resistance have been defined genetically by sequencing. […] MBL genes were obtained by PCR using standard procedures and were inserted into a pK18 vector which was used to transform E. coli J53 ([34]). Transconjugants were obtained with MBL genes carried on native wild-type plasmids conjugated into J53 ([35]). Both transformants and transconjugants were confirmed by DNA sequencing and verified for MBL production by using MTS MBL strips (Liofilchem, Roseto, Italy). […] MICs were determined using the broth microdilution method according to CLSI guidelines. Strains were cultured and tested in cation-adjusted Mueller-Hinton agar and broth (Becton Dickinson).

The subject of experiment [2] is E. coli J53 + NDM-1 clone. Description: MIC, broth microdilution. The conditions noted are these: captopril where added at 8 mg/liter. The class given is cell-based, Escherichia coli. From the text:
(§2) The bacteria used were nonclonal international isolates whose mechanisms of carbapenem resistance have been defined genetically by sequencing. E. coli ATCC 25922 was used as a negative control. MBL genes were obtained by PCR using standard procedures and were inserted into a pK18 vector which was used to transform E. coli J53 ([34]). Transconjugants were obtained with MBL genes carried on native wild-type plasmids conjugated into J53 ([35]). Both transformants and transconjugants were confirmed by DNA sequencing and verified for MBL production by using MTS MBL strips (Liofilchem, Roseto, Italy). Additionally, 5 Escherichia coli (with NDM-1), 10 Klebsiella pneumoniae (5 with NDM-1, 3 with VIM-4, and 2 with IMP-4), 1 Serratia marcescens (with IMP-4), and 2 Pseudomonas aeruginosa (with VIM-2 and AIM-1) isolates and E. coli ATCC 25922 were used in the test panel. MICs were determined using the broth microdilution method according to CLSI guidelines. Strains were cultured and tested in cation-adjusted Mueller-Hinton agar and broth (Becton Dickinson).

The test system of experiment [3] is E. coli J53 + VIM-2 clone. Kind of experiment: MIC, broth microdilution. As to conditions: captopril where added at 8 mg/liter. The experiment is classed as cell-based, Escherichia coli.
Text: as §2

The subject of experiment [4] is E. coli J53 + VIM-2 transconjugant. Kind of experiment: MIC, broth microdilution. The class given is cell-based, Escherichia coli. The conditions noted are these: captopril where added at 8 mg/liter.
Text: as §2

The test system of experiment [5] is E. coli J53 + IMP-1 clone. Description: MIC, broth microdilution. The class given is cell-based, Escherichia coli. As to conditions: captopril where added at 8 mg/liter.
Text: as §2

Experiment [6] concerns E. coli 25922. Description: MIC, broth microdilution. The experiment is classed as cell-based, Escherichia coli. As to conditions: E. coli 25922 (negative control); captopril where added at 8 mg/liter.
Text: as §1

For experiment [7], the system named is K. pneumoniae IR8 (NDM-1). Kind of experiment: MIC, broth microdilution. The experiment is classed as cell-based, Klebsiella pneumoniae. As to conditions: captopril where added at 8 mg/liter.
Text: as §2

In experiment [8] the test system is K. pneumoniae IR19 (NDM-1). Kind of experiment: MIC, broth microdilution. The experiment is classed as cell-based, Klebsiella pneumoniae. As to conditions: captopril where added at 8 mg/liter.
Text: as §2

The test system of experiment [9] is K. pneumoniae HR8 (NDM-1). Description: MIC, broth microdilution. The class given is cell-based, Klebsiella pneumoniae. As to conditions: captopril where added at 8 mg/liter.
Text: as §2

For experiment [10], the system named is K. pneumoniae A35 (VIM-4). Kind of experiment: MIC, broth microdilution. The class given is cell-based, Klebsiella pneumoniae. The conditions noted are these: captopril where added at 8 mg/liter.
Text: as §2

The test system of experiment [11] is K. pneumoniae A34 (VIM-4). Description: MIC, broth microdilution. As to conditions: captopril where added at 8 mg/liter. The class given is cell-based, Klebsiella pneumoniae.
Text: as §2

Experiment [12] concerns K. pneumoniae B12 (IMP-4). Kind of experiment: MIC, broth microdilution. As to conditions: captopril where added at 8 mg/liter. The class given is cell-based, Klebsiella pneumoniae.
Text: as §2

For experiment [13], the system named is K. pneumoniae A33 (VIM-4). Kind of experiment: MIC, broth microdilution. The experiment is classed as cell-based, Klebsiella pneumoniae. The conditions noted are these: captopril where added at 8 mg/liter.
Text: as §2

The subject of experiment [14] is K. pneumoniae N16 (NDM-1). Kind of experiment: MIC, broth microdilution. The experiment is classed as cell-based, Klebsiella pneumoniae. The conditions noted are these: captopril where added at 8 mg/liter.
Text: as §2

Experiment [15] concerns K. pneumoniae B19 (IMP-4). Kind of experiment: MIC, broth microdilution. The conditions noted are these: captopril where added at 8 mg/liter. The experiment is classed as cell-based, Klebsiella pneumoniae.
Text: as §2

For experiment [16], the system named is S. marcescens B13 (IMP-4). Description: MIC, broth microdilution. The class given is cell-based, Serratia marcescens. The conditions noted are these: captopril where added at 8 mg/liter.
Text: as §2

The test system of experiment [17] is E. coli IR10 (NDM-1). Description: MIC, broth microdilution. The experiment is classed as cell-based, Escherichia coli. The conditions noted are these: captopril where added at 8 mg/liter.
Text: as §2

For experiment [18], the system named is E. coli IR15 (NDM-1). Description: MIC, broth microdilution. The class given is cell-based, Escherichia coli. The conditions noted are these: captopril where added at 8 mg/liter.
Text: as §2

Experiment [19] has as its system E. coli IR24 (NDM-1). Kind of experiment: MIC, broth microdilution. The class given is cell-based, Escherichia coli. As to conditions: captopril where added at 8 mg/liter.
Text: as §2

Experiment [20] addresses T1, DCLRE1A (Homo sapiens, UniProt Q6PJP8).
T1 sequence (Q6PJP8 608-1040 limits assumed): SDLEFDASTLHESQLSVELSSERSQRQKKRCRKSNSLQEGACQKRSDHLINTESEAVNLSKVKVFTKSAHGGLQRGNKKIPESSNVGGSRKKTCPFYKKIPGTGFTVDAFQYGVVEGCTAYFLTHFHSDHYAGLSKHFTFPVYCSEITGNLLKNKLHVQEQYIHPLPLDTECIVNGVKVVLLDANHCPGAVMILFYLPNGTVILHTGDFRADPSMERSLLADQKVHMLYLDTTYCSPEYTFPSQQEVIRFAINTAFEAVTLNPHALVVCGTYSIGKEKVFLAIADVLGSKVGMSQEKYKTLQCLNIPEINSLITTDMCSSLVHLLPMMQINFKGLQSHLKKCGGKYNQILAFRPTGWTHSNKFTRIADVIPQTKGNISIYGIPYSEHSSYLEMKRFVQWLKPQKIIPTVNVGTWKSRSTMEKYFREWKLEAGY
Description: Nuclease assay, DCLRE1A. The conditions noted are these: at 100 μM, standard assay conditions.
Description: (§3) Nuclease assays with DCLRE1A and DCLRE1B (DNA cross-link repair enzymes 1A and 1B) ([33]) were performed according to a previously described method ([33]), employing a 21-nucleotide DNA oligonucleotide with a fluorescein label at its 3′ end. In brief, exonuclease activity was measured using ΔN-DCLRE1A (3.5 ng; 8 nM) or ΔC-DCLRE1B (1.5 ng; 4 nM) mixed with 1 pmol (1 μM) of 3′-fluorescein-labeled DNA substrate in 10 μl of 20 mM HEPES, pH 7.9, 50 mM KCl, 10 mM MgCl2, 0.5 mM dithiothreitol (DTT), 0.05% Triton-X, 0.1 mg/ml bovine serum albumin (BSA), and 5% glycerol.
(§4) [SNM1A] = [SNM1B] = 0.8 nM; [21nt fluor-ssDNA] = 1 µM, assay time = 20 mins

In experiment [21] the target is VIM-4 (Pseudomonas aeruginosa, UniProt Q8KRJ3). Description: MBL inhibition assay, VIM-4. The class given is biochemical.
Description: (§5) Recombinant forms of NDM-1, VIM-2, VIM-4, SPM-1, IMP-1, and BcII MBLs were produced in Escherichia coli as described previously ([27], [28]).
(§6) Kinetic and inhibition assays with the bacterial MBLs, human angiotensin-converting enzyme 2 (hACE-2), and hydroxyacylglutathione hydrolase, human glyoxylase II (hHAGH), were performed as described previously ([7], [27]).
Experiment [22] concerns the target human angiotensin-converting enzyme 2 (hACE-2) (Homo sapiens, UniProt Q9BYF1). Kind of experiment: Inhibition assay, hACE-2. The experiment is classed as biochemical. As to conditions: at 100 μM, standard assay conditions.
Description: as §6
In experiment [23] the target is T2, DCLRE1B (Homo sapiens, UniProt Q9H816).
T2 sequence (Q9H816 1-335 limits assumed): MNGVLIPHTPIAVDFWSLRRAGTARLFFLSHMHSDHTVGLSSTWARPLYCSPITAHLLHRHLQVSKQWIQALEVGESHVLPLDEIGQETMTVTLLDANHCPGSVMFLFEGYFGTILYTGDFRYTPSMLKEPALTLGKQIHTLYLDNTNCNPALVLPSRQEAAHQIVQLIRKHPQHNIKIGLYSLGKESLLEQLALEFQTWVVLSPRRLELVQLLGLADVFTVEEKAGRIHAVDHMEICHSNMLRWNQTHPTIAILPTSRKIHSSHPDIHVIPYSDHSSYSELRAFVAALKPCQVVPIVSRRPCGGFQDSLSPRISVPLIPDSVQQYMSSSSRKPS
Kind of experiment: Nuclease assay, DCLRE1B. The conditions noted are these: at 100 μM, standard assay conditions.
Description: as §3, §4

The target of experiment [24] is hydroxyacylglutathione hydrolase, human glyoxylase II (hHAGH) (Homo sapiens, UniProt Q16775). Kind of experiment: Inhibition assay, hHAGH. As to conditions: at 100 μM, standard assay conditions. The experiment is classed as biochemical.
Description: as §6
Experiment [25] addresses IMP-1 (Serratia marcescens, UniProt P52699). Kind of experiment: MBL inhibition assay, IMP-1.
Description: as §5, §6
In experiment [26] the target is T3, NDM-1 (Klebsiella pneumoniae, UniProt C7C422).
T3 construct: made in house; host or cells: Escherichia coli
Kind of experiment: biochemical.
Description: as §5, §6

The target of experiment [27] is SPM-1 (Pseudomonas aeruginosa, UniProt Q8G9Q0). Kind of experiment: MBL inhibition assay, SPM-1.
Description: as §5, §6
For experiment [28], the target named is BcII (Bacillus cereus, UniProt P04190). Kind of experiment: MBL inhibition assay, BcII.
Description: as §5, §6
In experiment [29] the target is T4, VIM-2 (Escherichia coli, UniProt Q5U7L7).
T4 construct: made in house; host or cells: Escherichia coli
Description: biochemical. The conditions noted are these: means ± standard deviations, three or more experiments.
Description: as §5, §6

The target in experiment [30] is FEZ-1. Further details: method as in PMID 12507470. As to conditions: B3 MBL ref 23; cited from earlier work.
Experiment [31] deals with CphA. The conditions noted are these: B2 MBL ref 18; cited from earlier work.

The values below come from paper PMC4704194, “Structural Basis of Metallo-β-Lactamase Inhibition by Captopril Stereoisomers” (Antimicrobial Agents and Chemotherapy, 2015).

SMILES strings stand for the structures. ≈ marks a conversion by molar mass, not a printed value. Some results are limits rather than exact numbers.

human angiotensin-converting enzyme 2 (hACE-2), sequence (Q9BYF1 18-805): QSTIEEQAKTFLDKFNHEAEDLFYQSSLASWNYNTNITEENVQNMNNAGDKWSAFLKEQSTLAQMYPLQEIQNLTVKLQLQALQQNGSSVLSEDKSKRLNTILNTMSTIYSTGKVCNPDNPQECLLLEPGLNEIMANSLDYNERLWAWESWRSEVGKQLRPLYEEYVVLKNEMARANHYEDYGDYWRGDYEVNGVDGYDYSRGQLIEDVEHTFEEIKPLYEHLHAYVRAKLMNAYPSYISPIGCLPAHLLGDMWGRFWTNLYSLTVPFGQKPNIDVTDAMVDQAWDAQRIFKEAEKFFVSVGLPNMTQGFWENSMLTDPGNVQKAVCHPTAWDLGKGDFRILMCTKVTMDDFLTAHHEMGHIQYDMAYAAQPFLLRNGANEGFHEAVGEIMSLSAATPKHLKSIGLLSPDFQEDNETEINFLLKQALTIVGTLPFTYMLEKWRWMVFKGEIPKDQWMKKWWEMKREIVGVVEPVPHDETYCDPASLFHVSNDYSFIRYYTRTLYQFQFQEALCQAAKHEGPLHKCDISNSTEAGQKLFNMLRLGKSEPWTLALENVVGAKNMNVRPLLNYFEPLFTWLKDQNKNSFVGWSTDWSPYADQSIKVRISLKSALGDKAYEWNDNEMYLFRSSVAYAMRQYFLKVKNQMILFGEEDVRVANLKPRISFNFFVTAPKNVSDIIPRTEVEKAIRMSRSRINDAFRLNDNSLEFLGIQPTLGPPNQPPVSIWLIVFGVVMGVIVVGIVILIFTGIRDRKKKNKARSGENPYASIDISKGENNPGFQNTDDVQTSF
BcII, sequence (P04190 31-257): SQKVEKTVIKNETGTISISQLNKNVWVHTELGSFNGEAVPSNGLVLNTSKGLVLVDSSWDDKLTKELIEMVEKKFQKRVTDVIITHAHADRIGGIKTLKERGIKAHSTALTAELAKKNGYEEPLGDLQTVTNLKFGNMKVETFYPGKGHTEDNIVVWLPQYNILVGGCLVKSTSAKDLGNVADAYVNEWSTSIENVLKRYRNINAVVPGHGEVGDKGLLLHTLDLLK
SPM-1, sequence (Q8G9Q0 entry or part of it): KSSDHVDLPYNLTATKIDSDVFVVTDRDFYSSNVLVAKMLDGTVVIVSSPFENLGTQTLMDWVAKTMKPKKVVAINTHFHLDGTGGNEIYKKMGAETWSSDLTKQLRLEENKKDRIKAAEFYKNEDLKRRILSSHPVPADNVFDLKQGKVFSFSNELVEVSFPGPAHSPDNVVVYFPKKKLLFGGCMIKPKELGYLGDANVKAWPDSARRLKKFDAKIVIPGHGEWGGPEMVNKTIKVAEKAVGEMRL
IMP-1, sequence (P52699 19-246 limits assumed): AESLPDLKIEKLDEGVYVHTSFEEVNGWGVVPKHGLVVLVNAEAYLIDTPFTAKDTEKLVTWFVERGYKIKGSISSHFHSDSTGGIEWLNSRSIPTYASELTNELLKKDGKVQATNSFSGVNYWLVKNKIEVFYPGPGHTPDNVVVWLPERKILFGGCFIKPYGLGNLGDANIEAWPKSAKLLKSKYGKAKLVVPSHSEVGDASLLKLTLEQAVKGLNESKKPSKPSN
T3 sequence (C7C422 29-270 limits assumed): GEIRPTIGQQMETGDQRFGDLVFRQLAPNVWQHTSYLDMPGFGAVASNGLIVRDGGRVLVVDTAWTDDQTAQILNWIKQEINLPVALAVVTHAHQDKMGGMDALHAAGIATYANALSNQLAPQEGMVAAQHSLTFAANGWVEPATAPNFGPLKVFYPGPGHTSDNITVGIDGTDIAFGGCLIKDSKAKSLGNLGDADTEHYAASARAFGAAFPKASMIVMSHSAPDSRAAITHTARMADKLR

In the case of `CC(C)(O/N=C(\C(=O)N[C@@H]1C(=O)N2C(C(=O)[O-])=C(C[n+]3ccccc3)CS[C@H]12)c1csc(N)n1)C(=O)O` [CFZ, ceftazidime], the minimal inhibitory concentration (MIC) was 512 mg/L (≈ 937 µM) in [1]; 512 mg/L (≈ 937 µM) in experiment [2]; 32 mg/L (≈ 58.5 µM) in experiment [3]; 32 mg/L (≈ 58.5 µM) in experiment [4]; 128 mg/L (≈ 234 µM) in [5].
In the case of `C[C@@H](O)[C@H]1C(=O)N2C(C(=O)O)=C(S[C@@H]3CN[C@H](C(=O)N(C)C)C3)[C@H](C)[C@H]12` [MEM, meropenem], the MIC in experiment [6] was under 0.125 mg/L; in experiment [7] it was 16 mg/L (≈ 41.7 µM); in experiment [8] it was 8 mg/L (≈ 20.9 µM); in experiment [9], 64 mg/L (≈ 167 µM); in experiment [10], 16 mg/L (≈ 41.7 µM); in experiment [11], 8 mg/L (≈ 20.9 µM). Also, the MIC in [12] came out at 8 mg/L (≈ 20.9 µM); in [13], 8 mg/L (≈ 20.9 µM); in experiment [14], 32 mg/L (≈ 83.4 µM); in experiment [15] it was 32 mg/L (≈ 83.4 µM); in experiment [16] it was 4 mg/L (≈ 10.4 µM); in [2] it was 64 mg/L (≈ 167 µM). Besides, the MIC stood at 64 mg/L (≈ 167 µM) in experiment [17]; 8 mg/L (≈ 20.9 µM) in experiment [3]; 8 mg/L (≈ 20.9 µM) in [18]; 512 mg/L (≈ 1340 µM) in experiment [19]; 2 mg/L (≈ 5.22 µM) in [4]; 1 mg/L (≈ 2.61 µM) in experiment [5].
Take `C[C@H](CS)C(=O)N1CCC[C@H]1C(=O)O` [L-Captopril, (2S)-1-[(2S)-2-Methyl-3-sulfanylpropanoyl] pyrrolidine-2-carboxylic acid]: in experiment [20], the “inhibition of DCLRE1A” value is recorded as “no inhibition”. Further, half-maximal inhibition in experiment [21] (IC50) required 3.9 ± 0.5 µM. Further, the “inhibition of hACE-2” value in experiment [22] is reported as “no inhibition”. Moreover, the “inhibition of DCLRE1B” value in experiment [23] is “no inhibition”. The “inhibition of hHAGH” value in experiment [24] is listed as “no inhibition”.
Regarding `O=C(O)C1CCCN1C(=O)c1ccccc1S` [D-MBP, 1-(2-mercaptobenzoyl)pyrrolidine-2-carboxylic acid], the half-maximal inhibitory concentration (IC50) in experiment [25], in experiment [26], in [27], in [28] and in experiment [29] was over 500 µM each time. The “inhibition of DCLRE1A” value in [20] is “no inhibition”. For the same compound, the “inhibition of hACE-2” value in experiment [22] is on record as “no inhibition”. The “inhibition of DCLRE1B” value in experiment [23] is given as “no inhibition”. Also, in experiment [24], the “inhibition of hHAGH” value is “no inhibition”.
In the case of `C[C@@H](CS)C(=O)N1CCC[C@H]1C(=O)O` [D-Captopril, (2S)-1-[(2R)-2-methyl-3-sulfanylpropanoyl] pyrrolidine-2-carboxylic acid], the figures for the inhibitory constant (Ki) in experiment [30] and in [31] were 400 µM and 72 µM, respectively. Further, in experiment [20], the “inhibition of DCLRE1A” value is recorded as “no inhibition”. The same compound registered an IC50 in [21] of 1.7 ± 0.4 µM. For the same compound, in [22], the “inhibition of hACE-2” value is “no inhibition”. Further, the “inhibition of DCLRE1B” value in [23] is on record as “no inhibition”. Further, the “inhibition of hHAGH” value in experiment [24] is given as “no inhibition”.
